Measurements taken from patent US9067970B2, “Anticancer agents comprising peptides with cancer-specific toxicity” (Korea Advanced Institute of Science and Technology, priority 2010, dated 2015).
Where no end group is shown, it is not given here.

Experiments:
[1] = system: human embryo fibroblast (FSF); assay: MTT viability of normal human embryo fibroblast (FSF) cells; conditions: peptide 10-200 μg/ml, 4 days, FIG. 1
Protocol: (§2) In order to test toxicity of the synthesized NKC and NRC peptides on normal cells, each of the cultured human embryo fibroblast (FSF), human keratinocyte (HaCat) and human erythrocyte was treated with the synthesized peptide, and the viability of each cell was analyzed.
(§3) In detail, each 1×10^4 of FSF and HaCat cells was aliquoted to a 96-well plate, and cultured for 24 hrs. Subsequently, each of the synthesized peptides, a known anticancer peptide, buforin IIb, and a known non-cytotoxic peptide, magainin 2 was added thereto at a concentration of 10, 25, 50, 100 or 200 μg/ml, and then the cells were cultured for 4 days. Thereafter, MTT (3-[4,5-dimethylthiazol-2-yl]-2,5-diphenyltetrazolium bromide) was added, and color development was detected using a spectrophotometer to count the number of surviving cells. On the basis of this, viability of each cell was calculated (FIGS. 1 and 1b). In this connection, an experimental group treated with PBS only was used as a control group.

human erythrocyte = assay: Disruption of human erythrocytes (absorbance); conditions: peptide 10-200 μg/ml, 30 min, FIG. 3
Protocol: as §2
Meanwhile, PBS was added to erythrocytes obtained from the human blood, and diluted 1,000-fold. Each of the synthesized peptides, a known anticancer peptide, buforin IIb, and a known non-cytotoxic peptide, magainin 2 was added thereto at a concentration of 10, 25, 50, 100 or 200 μg/ml. After 30 min, disruption of erythrocytes was determined by the difference in absorbance using spectrometry (FIG. 3). In this connection, an experimental group treated with PBS only was used as a control group.

[2] = system: human keratinocyte (HaCat); assay: MTT viability of normal human keratinocyte (HaCat) cells; conditions: peptide 10-200 μg/ml, 4 days, FIG. 2
Protocol: as §2, §3

HCT-116 cell line = assay: Fluorescence microscopy of FITC-labeled peptide, HCT-116 cell line; assay type: cell-based, human; conditions: 20 μg/ml, 1 hr, fluorescence microscope, FIG. 10
Protocol: (§1) To reconfirm the cell selectivity of the peptides of the present invention, each 2×10^5 of normal FSF and HaCat cells, and SM-MEL-5 cell line, HeLa cell line and HCT-116 cell line as cancer cells were cultured at 37° C. overnight, and FITC (fluorescein isothiocyanate)-labeled peptides, buforin IIB and magainin 2 were added thereto at a concentration of 20 μg/ml, followed by incubation for 1 hr. Each cell or cell line was washed with PBS, and observed under a fluorescence microscope (FIG. 10).

SM-MEL-5 cell line = assay: Fluorescence microscopy of FITC-labeled peptide, SM-MEL-5 cell line; assay type: cell-based, human; conditions: 20 μg/ml, 1 hr, fluorescence microscope, FIG. 10
Protocol: as §1

HeLa cell line = assay: Fluorescence microscopy of FITC-labeled peptide, HeLa cell line; assay type: cell-based, human; conditions: 20 μg/ml, 1 hr, fluorescence microscope, FIG. 10
Protocol: as §1

K-562 cancer cell line [3] = assay: Anticancer activity on cancer cells lacking ganglioside (PMPP, MTT viability); assay type: cell-based, human; conditions: peptide 10 μg/ml, PMPP 0, 2 and 4 μM, 48 hrs, FIG. 16
Protocol: In detail, the K-562 cancer cell line was aliquoted to each well of 96-well plate at a density of 1×10^4, and each well was treated with an inhibitor of ganglioside biosynthesis, PMPP at the concentration of 0, 2 and 4 μM, and then treated with 10 μg/ml of the peptides of the present invention, buforin IIb and magainin 2, followed by cultivation for 48 hrs. Cell viability was measured in the same manner as in Example 1 (MTT assay) (FIG. 16).

normal HaCat cells = assay: Fluorescence microscopy of FITC-labeled peptide, HaCat cells; assay type: cell-based, human; conditions: 20 μg/ml, 1 hr, fluorescence microscope, FIG. 10
Protocol: as §1

K-562 cancer cell line [4] = assay: Competitive binding assay with ganglioside, phosphatidylserine or heparin (MTT viability); assay type: cell-based, human; conditions: peptide 10 μg/ml, 48 hrs
Description: Accordingly, the present inventors assumed that external addition of ganglioside, phosphatidylserine, and heparin to the cancer cell culture media causes dispersion of the peptides of the present invention in the cancer cell surface and the negatively charged materials added to the culture media, whereby the anticancer activity is reduced by the addition of negatively charged materials in a concentration-dependent manner.
In detail, the K-562 cancer cell line was aliquoted to each well of 96-well plate at a density of 1×10^4, and each well was treated with 1 to 100 μg/ml of heparin, phosphatidylserine or ganglioside, and 10 μg/ml of the peptides of the present invention, buforin IIb and magainin 2, followed by cultivation for 48 hrs. Cell viability was measured in the same manner as in Example 1 (MTT assay) (FIGS. 13 to 15).

normal FSF cells = assay: Fluorescence microscopy of FITC-labeled peptide, FSF cells; assay type: cell-based, human; conditions: 20 μg/ml, 1 hr, fluorescence microscope, FIG. 10
Protocol: as §1

APKAMRLLRRLLRLQKKGI-NH2 [NRC, APKAMRLLRRLLRLQKKGI-amide]
viability of FSF cells (toxicity on normal cells) [1]: little toxicity | viability of erythrocytes (toxicity on normal cells) (human erythrocyte): little toxicity | viability of HaCat cells (toxicity on normal cells) [2]: little toxicity

buforin IIb
detection of FITC-labeled peptide in HCT-116 cell line (HCT-116 cell line): in a large quantity | detection of FITC-labeled peptide in SM-MEL-5 cell line (SM-MEL-5 cell line): in a large quantity | detection of FITC-labeled peptide in HeLa cell line (HeLa cell line): in a large quantity | viability of cancer cells with increasing concentration of inhibitor of ganglioside biosynthesis (K-562 cancer cell line [3]): increased | detection of FITC-labeled peptide in normal HaCat cells (normal HaCat cells): at a predetermined level | cell viability with external addition of ganglioside (K-562 cancer cell line [4]; ganglioside 1 to 100 μg/ml, FIG. 13): high cell viability | cell viability with external addition of heparin (K-562 cancer cell line [4]; heparin 1 to 100 μg/ml, FIG. 15): high cell viability | cell viability with external addition of phosphatidylserine (K-562 cancer cell line [4]; phosphatidylserine 1 to 100 μg/ml, FIG. 14): high cell viability | detection of FITC-labeled peptide in normal FSF cells (normal FSF cells): rarely detected

APKAMKLLKKLLKLQKKGI-NH2 [NKC, APKAMKLLKKLLKLQKKGI-amine]
viability of FSF cells (toxicity on normal cells) [1]: little toxicity | viability of erythrocytes (toxicity on normal cells) (human erythrocyte): little toxicity | viability of HaCat cells (toxicity on normal cells) [2]: little toxicity

magainin 2
detection of FITC-labeled peptide in HCT-116 cell line (HCT-116 cell line): not detected | detection of FITC-labeled peptide in SM-MEL-5 cell line (SM-MEL-5 cell line): not detected | detection of FITC-labeled peptide in HeLa cell line (HeLa cell line): not detected | detection of FITC-labeled peptide in normal HaCat cells (normal HaCat cells): not detected | detection of FITC-labeled peptide in normal FSF cells (normal FSF cells): not detected
